From PMC2655680 (Nucleic Acids Research, 2009)
Where “and” joins values, the source holds several entries; their conditions need not be identical. Equal values may be shown once.

Target: PNK–FHA (FHA domain of human PNK, amino acids 1–109) (Homo sapiens, UniProt Q96T60)
Type: binding
Settings: ITC, peptide injected into PNK–FHA, 10°C, pH 7.5; floating variable of the fit

N (stoichiometry, estimated molar ratio peptide:PNK–FHA): 0.46 and 0.50 and 0.56 and 0.88 and 0.51
Sequence: YAGSTDENTDSE
